The compounds below were run on Escherichia coli (assay: Antibacterial activity against cefoxitin-resistant Escherichia coli by microdilution method).
Format: functional

Row | Structure (SMILES) | MIC
1 | CO[C@@]1(NC(=O)Cc2cccs2)C(=O)N2C(C(=O)O)=C(COC(N)=O)CS[C@@H]21 [CEFOXITIN] | ≥ 16 µg/mL
2 | CN[C@@H]1[C@H](O[C@H]2[C@H](O[C@H]3[C@H](O)[C@@H](O)[C@H](N=C(N)N)[C@@H](O)[C@@H]3N=C(N)N)O[C@@H](C)[C@]2(O)C=O)O[C@@H](CO)[C@H](O)[C@H]1O [STREPTOMYCIN] | ≥ 64 µg/mL
3 | CO/N=C(\C(=O)N[C@@H]1C(=O)N2C(C(=O)O)=C(CSC(=O)c3ccco3)CS[C@H]12)c1csc(N)n1 [CEFTIOFUR] | ≥ 8 µg/mL
